Assays:
[1] = molecular target: T1, NTRK1 (Homo sapiens, UniProt P04629); experiment: NGF-mediated induction of EGR genes in TE-7 cells stably expressing NTRK1, with tyrosine kinase inhibitors; format: cell-based; settings: TE-7 epithelial cells, NGF stimulation
T1 construct: expressed in transfected cells
Source text: In order to further investigate the functional link between IL-13 and NGF signaling we generated two pools of TE-7 cells stably expressing NTRK1 that allowed us to simultaneously induce IL-13 and NGF/NTRK1 responses.
We further hypothesized that inhibition of NTRK1 kinase activity will prevent induction of EGR genes following NGF stimulation. To test this hypothesis we utilized two tyrosine kinase inhibitors lestaurtinib (CEP-701) and crizotinib that were previously reported as efficient blockers of NTRK1 auto-phosphorylation and downstream signaling.

[2] = tested on: NTRK1 expression in esophageal biopsies; experiment: RT-PCR analysis of NTRK1 in esophageal biopsies of EoE patients after swallowed steroid treatment; format: in vivo, human; settings: EoE patients who responded to swallowed steroid treatment (FPR, n=13) vs active EoE and controls; FIG. 4A
Method: FIG. 4. NTRK1, NGF, and EGR1 expression in human allergic inflammation. In A, RT-PCR analysis of NTRK1 in biopsies was performed in unaffected control patients (Ctrl, n=13), patients with active EoE (EoE, n=12), and EoE patients who responded to swallowed steroid treatment (fluticasone responders [FPR], n=13); ***p<0.001; ns, not significant. In B and C, the graphs show Pearson correlation of NTRK1 expression with IL-13 levels and peak eosinophil counts in EoE biopsies. […] In E, quantification of NTRK1 in control and active EoE biopsies is shown (n=5 each); *p<0.05. Expression level was normalized to the level of GAPDH. In F, RT-PCR analysis of NGF and CCL26 was performed in control and EoE biopsies (n=10 each); ****p<0.0001; ns, not significant. In G, amount of NGF and CCL26 protein was measured by ELISA in control and active EoE biopsies (n=5 each); *p<0.05; ns, not significant. […] In I, EGR1 mRNA was measured by RT-PCR in esophageal biopsies of unaffected control (Ctrl) patients and patients with active EoE (n=10 each). ***p<0.001. […]
In vitro experiments with epithelial cells prompted us to investigate whether NTRK1 is increased in epithelial cells in vivo during allergic responses. First, we assessed expression of NTRK1 mRNA in esophageal biopsies of control and EoE patients. […]

T1 sequence (P04629 33-796): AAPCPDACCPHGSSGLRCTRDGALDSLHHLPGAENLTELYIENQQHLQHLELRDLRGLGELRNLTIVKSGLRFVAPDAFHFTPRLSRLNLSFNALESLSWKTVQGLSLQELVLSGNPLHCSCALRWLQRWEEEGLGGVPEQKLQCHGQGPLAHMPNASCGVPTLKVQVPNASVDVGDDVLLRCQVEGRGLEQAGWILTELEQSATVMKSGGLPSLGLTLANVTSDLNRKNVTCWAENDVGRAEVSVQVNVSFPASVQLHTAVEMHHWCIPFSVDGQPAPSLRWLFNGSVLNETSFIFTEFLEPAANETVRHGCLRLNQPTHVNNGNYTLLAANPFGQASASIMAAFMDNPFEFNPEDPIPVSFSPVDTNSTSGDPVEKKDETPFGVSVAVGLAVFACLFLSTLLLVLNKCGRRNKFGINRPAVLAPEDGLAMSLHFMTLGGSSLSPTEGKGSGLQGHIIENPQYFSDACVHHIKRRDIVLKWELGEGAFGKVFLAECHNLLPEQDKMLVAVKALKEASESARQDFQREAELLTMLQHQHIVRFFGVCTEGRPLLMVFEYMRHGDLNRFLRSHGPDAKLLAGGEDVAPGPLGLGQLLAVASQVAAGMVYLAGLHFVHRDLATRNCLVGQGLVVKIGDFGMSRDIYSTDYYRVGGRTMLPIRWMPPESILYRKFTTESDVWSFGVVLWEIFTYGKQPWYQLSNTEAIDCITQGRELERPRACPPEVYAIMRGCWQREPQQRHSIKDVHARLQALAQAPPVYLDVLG

Compound	NGF-mediated increase in EGR1 mRNA ([1]; EGR1 mRNA)	NGF-mediated increase in EGR3 mRNA ([1]; EGR3 mRNA)	NTRK1 mRNA expression in esophageal biopsies [2]
C[C@@H](Oc1cc(-c2cnn(C3CCNCC3)c2)cnc1N)c1c(Cl)ccc(F)c1Cl [crizotinib]	dramatically reduced	dramatically reduced	
CCC(=O)O[C@]1(C(=O)SCF)[C@H](C)C[C@H]2[C@@H]3C[C@H](F)C4=CC(=O)C=C[C@]4(C)[C@@]3(F)[C@@H](O)C[C@@]21C [fluticasone propionate]			normalized levels
